According to patent US8592448B2 (OSI Pharmaceuticals, LLC, priority 2008, dated 2013):

Experiments:
phosphorylated c-MET = target: T1, phosphorylated c-MET (Homo sapiens, UniProt P08581); assay: c-MET cell mechanistic assay (phosphorylated c-MET in MKN45 cells); format: cell-based; settings: MKN45 cell line, four hours incubation, phosphorylated c-MET levels, at least duplicate experiments; read-out: Met mech IC50
T1 construct: endogenous in cells; host or cells: MKN45
Summary of the method: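 MKN45 cells were treated 4 h at 37 °C with a 6-point dilution series (typically 10 μM to 3 nM; final 0.5% DMSO). Phospho-c-MET (pY1230/1234/1235) in lysates was measured by capture ELISA with HRP read-out at 450 nm. IC50 came from a four-parameter fit of percent of DMSO control.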

MKN45 cells = assay: MKN45 cell proliferation assay (CellTiter-Glo); format: cell-based; settings: Homo sapiens, MKN-45, 72 h, MKN45 cell line, 3 days incubation, at least duplicate experiments, read-out: Prolif. IC50
Experimental: The effect of inhibitors on the proliferation of MKN45 cells was determined using the following protocol. MKN45 cells were plated in Corning 3917 96-well white tissue culture treated plates in growth medium (RPMI, 10% FCS) at a density of 5000 cells/well in a total volume of 135 μL and incubated at 37° C., 5% CO2, 95% humidity overnight. The following day, one-tenth volume of a 10× concentration of compounds was added to the wells in an 8-point dilution series. The dilution series was composed of an initial 1:5 dilution of a 10 mM stock of compound in DMSO, followed by serial 1:4 dilutions in DMSO, then a 1:20 dilution in growth medium prior to the 1:10 dilution into the cell plate. Final DMSO concentration on the cells was 0.1%, there were control wells treated with both 0.1% DMSO and no DMSO. The typical dilution range is 10 μM to 0.6 nM. Once the compound was added to the cells, plates were incubated for 3 days at 37° C., 5% CO2 at 95% humidity. On the third day, after allowing all cells and reagents to come to room temperature, 25 μL of CellTiter-Glo reagent (Promega # G7573) was added to the wells. Plates were shaken on a platform for 10 minutes prior to reading luminescence for 0.1 seconds. The signal of the control wells was taken as 100% growth and growth inhibition was expressed as percent of control. IC50 values were determined from the percent of control data using a standard four-parameter model.
The IC50 values of exemplary compounds of the present invention determined in a cell proliferation assay using the MKN45 cell line according to the procedures described herein in at least duplicate experiments are abbreviated as follows and are shown in Table 2: A, IC50≦0.1 μM; B, 0.1 μM<IC50≦1 μM; C, 1 μM<IC50≦10 μM; D, IC50>10 μM; ND, not determined. The Example # of Table 2 corresponds to the compound example number as illustrated in the Examples section.

T1 sequence (P08581 25-1390): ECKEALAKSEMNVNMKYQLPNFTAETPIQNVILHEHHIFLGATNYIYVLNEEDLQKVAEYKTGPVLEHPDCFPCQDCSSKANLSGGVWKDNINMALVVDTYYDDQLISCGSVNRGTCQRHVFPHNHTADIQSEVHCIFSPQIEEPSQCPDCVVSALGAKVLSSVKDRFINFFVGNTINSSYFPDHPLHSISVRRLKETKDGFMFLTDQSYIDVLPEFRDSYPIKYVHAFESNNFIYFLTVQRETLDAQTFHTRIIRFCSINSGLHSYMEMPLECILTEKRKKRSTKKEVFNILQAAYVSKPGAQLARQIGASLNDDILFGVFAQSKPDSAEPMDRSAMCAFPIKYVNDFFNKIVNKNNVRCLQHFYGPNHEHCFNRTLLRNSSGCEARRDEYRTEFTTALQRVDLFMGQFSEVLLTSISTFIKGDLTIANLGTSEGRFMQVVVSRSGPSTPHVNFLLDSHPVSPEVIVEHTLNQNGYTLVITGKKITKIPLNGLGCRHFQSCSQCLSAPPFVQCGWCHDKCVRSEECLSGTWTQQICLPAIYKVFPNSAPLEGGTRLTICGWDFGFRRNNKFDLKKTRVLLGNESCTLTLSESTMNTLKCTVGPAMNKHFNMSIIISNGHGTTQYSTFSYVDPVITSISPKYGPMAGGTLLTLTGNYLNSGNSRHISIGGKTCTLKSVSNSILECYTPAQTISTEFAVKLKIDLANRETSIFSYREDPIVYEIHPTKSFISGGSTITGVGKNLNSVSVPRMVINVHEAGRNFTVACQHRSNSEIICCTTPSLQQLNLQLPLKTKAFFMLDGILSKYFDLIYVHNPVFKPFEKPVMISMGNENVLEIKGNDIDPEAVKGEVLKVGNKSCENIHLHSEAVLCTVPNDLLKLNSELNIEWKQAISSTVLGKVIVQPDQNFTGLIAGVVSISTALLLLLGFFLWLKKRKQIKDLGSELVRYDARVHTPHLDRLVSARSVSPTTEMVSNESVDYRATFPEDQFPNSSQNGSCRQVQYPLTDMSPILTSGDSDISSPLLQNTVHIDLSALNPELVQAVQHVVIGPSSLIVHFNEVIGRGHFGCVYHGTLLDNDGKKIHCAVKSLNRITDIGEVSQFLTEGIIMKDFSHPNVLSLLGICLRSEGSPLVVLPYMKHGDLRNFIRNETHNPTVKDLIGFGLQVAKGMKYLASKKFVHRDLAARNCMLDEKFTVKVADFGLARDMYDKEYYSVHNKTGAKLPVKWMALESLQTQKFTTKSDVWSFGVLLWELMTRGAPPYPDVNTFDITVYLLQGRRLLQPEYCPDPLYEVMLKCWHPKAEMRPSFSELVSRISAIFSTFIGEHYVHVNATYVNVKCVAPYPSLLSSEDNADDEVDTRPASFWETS

Compound CC(c1c(Cl)ccc(F)c1Cl)c1c[nH]c2ncc(-c3cnn(CCN4CCOCC4)c3)cc12 (centres unmarked) [Example 31, 3-[1-(2,6-Dichloro-3-fluorophenyl)ethyl]-5-[1-(2-morpholin-4-ylethyl)-1H-pyrazol-4-yl]-1H-pyrrolo[2,3-b]pyridine] has an IC50 (phosphorylated c-MET) of at most 100 nM and an IC50 (MKN45 cells) of at most 100 nM.

CC(c1c(Cl)ccc(F)c1Cl)c1c[nH]c2ncc(C3=CCNCC3)cc12 (centres unmarked) [Example 32, 3-[1-(2,6-Dichloro-3-fluorophenyl)-ethyl]-5-(1,2,3,6-tetrahydropyridin-4-yl)-1H-pyrrolo[2,3-b]pyridine] gave an IC50 (phosphorylated c-MET) of 100 to 1000 nM and an IC50 (MKN45 cells) of 100 to 1000 nM.

CC(c1c(Cl)ccc(F)c1Cl)c1c[nH]c2ncc(C3=CCN(C(=O)[C@H](C)O)CC3)cc12 (stereo partly drawn) [Example 41, (S)-1-(4-{3-[1-(2,6-Dichloro-3-fluorophenyl)ethyl]-1H-pyrrolo[2,3-b]-pyridin-5-yl}-3,6-dihydro-2H-pyridin-1-yl)-2-hydroxypropan-1-one] gave an IC50 (phosphorylated c-MET) of at most 100 nM and an IC50 (MKN45 cells) of 100 to 1000 nM.

In the case of CC(c1c(Cl)ccc(F)c1Cl)c1c[nH]c2ncc(-c3ccc(C(=O)NCCO)cc3)cc12 (centres unmarked) [Example 24, 4-{3-[1-(2,6-Dichloro-3-fluorophenyl)ethyl]-1H-pyrrolo[2,3-b]pyridin-5-yl}-N-(2-hydroxyethyl)benzamide], the IC50 (phosphorylated c-MET) is reported as 100 to 1000 nM and the IC50 (MKN45 cells) is reported as 100 to 1000 nM.

CC(c1c(Cl)ccc(F)c1Cl)c1c[nH]c2ncc(-c3cnn(C4CN(C=O)C4)c3)cc12 (centres unmarked) [Example 55, 3-(4-{3-[1-(2,6-Dichloro-3-fluorophenyl)ethyl]-1H-pyrrolo[2,3-b]pyridin-5-yl}-pyrazol-1-yl)-azetidine-1-carbaldehyde] was tested, and the IC50 (phosphorylated c-MET) was at most 100 nM and the IC50 (MKN45 cells) was at most 100 nM.

C[C@H](c1c(Cl)ccc(F)c1Cl)c1c[nH]c2ncc(-c3cnn(C(C)(C)CO)c3)cc12 [Example 85, 2-(4-{3-[(S)-1-(2,6-Dichloro-3-fluorophenyl)ethyl]-1H-pyrrolo[2,3-b]-pyridin-5-yl}-pyrazol-1-yl)-2-methylpropan-1-ol] was tested, and the IC50 (phosphorylated c-MET) was at most 100 nM and the IC50 (MKN45 cells) was 100 to 1000 nM.

In the case of CC(c1c(Cl)ccc(F)c1Cl)c1c[nH]c2ncc(-c3ccc(C(=O)N4CCN(C)CC4)cc3)cc12 (centres unmarked) [Example 15, (4-{3-[1-(2,6-Dichloro-3-fluorophenyl)ethyl]-1H-pyrrolo[2,3-b]pyridin-5-yl}phenyl)-(4-methylpiperazin-1-yl)methanone], the IC50 (phosphorylated c-MET) is reported as at most 100 nM and the IC50 (MKN45 cells) is reported as 100 to 1000 nM.

COCCNC(=O)c1ccc(-c2cnc3[nH]cc(C(C)c4c(Cl)ccc(F)c4Cl)c3c2)cc1 (centres unmarked) [Example 6, 4-{3-[1-(2,6-Dichloro-3-fluorophenyl)ethyl]-1H-pyrrolo[2,3-b]pyridin-5-yl}-N-(2-methoxyethyl)benzamide] showed an IC50 (phosphorylated c-MET) of 100 to 1000 nM and an IC50 (MKN45 cells) of 1000 to 10000 nM.

With CC(c1c(Cl)ccc(F)c1Cl)c1c[nH]c2ncc(-c3cnn(C(C)(C)C(=O)N(C)C)c3)cc12 (centres unmarked) [Example 63, 2-(4-{3-[1-(2,6-Dichloro-3-fluorophenyl)ethyl]-1H-pyrrolo[2,3-b]pyridin-5-yl}-pyrazol-1-yl)-N,N-dimethylisobutyramide] the IC50 (phosphorylated c-MET) was at most 100 nM and the IC50 (MKN45 cells) was 100 to 1000 nM.

C[C@H](c1c(Cl)ccc(F)c1Cl)c1c[nH]c2ncc(-c3cnn(CC(N)=O)c3)cc12 [Example 77, 2-(4-{3-[(S)-1-(2,6-Dichloro-3-fluorophenyl)ethyl]-1H-pyrrolo[2,3-b]-pyridin-5-yl}-pyrazol-1-yl)-acetamide] was tested, and the IC50 (phosphorylated c-MET) was at most 100 nM and the IC50 (MKN45 cells) was at most 100 nM.

CC(c1c(Cl)ccc(F)c1Cl)c1c[nH]c2ncc(-c3ccc(S(=O)(=O)N(C)C)cc3)cc12 (centres unmarked) [Example 22, 4-{3-[1-(2,6-Dichloro-3-fluorophenyl)ethyl]-1H-pyrrolo[2,3-b]pyridin-5-yl}-N,N-dimethylbenzenesulfonamide] showed an IC50 (phosphorylated c-MET) of 1000 to 10000 nM and an IC50 (MKN45 cells) of 1000 to 10000 nM.

Work on CC(c1c(Cl)ccc(F)c1Cl)c1c[nH]c2ncc(-c3cnn(C4CCN(S(C)(=O)=O)CC4)c3)cc12 (centres unmarked) [Example 50, 3-[1-(2,6-Dichloro-3-fluorophenyl)-ethyl]-5-[1-(1-methanesulfonyl-piperidin-4-yl)-1H-pyrazol-4-yl]-1H-pyrrolo[2,3-b]pyridine] yielded an IC50 (phosphorylated c-MET) of at most 100 nM and an IC50 (MKN45 cells) of 100 to 1000 nM.

Work on CC(c1c(Cl)ccc(F)c1Cl)c1c[nH]c2ncc(-c3cnn(C(C)(C)C(N)=O)c3)cc12 (centres unmarked) [Example 64, 2-(4-{3-[1-(2,6-Dichloro-3-fluorophenyl)ethyl]-1H-pyrrolo[2,3-b]pyridin-5-yl}-pyrazol-1-yl)-isobutyramide] yielded an IC50 (phosphorylated c-MET) of at most 100 nM and an IC50 (MKN45 cells) of 100 to 1000 nM.

CC(c1c(Cl)ccc(F)c1Cl)c1c[nH]c2ncc(C3=CCN(C(=O)N(C)C)CC3)cc12 (centres unmarked) [Example 36, 4-{3-[1-(2,6-Dichloro-3-fluorophenyl)-ethyl]-1H-pyrrolo[2,3-b]pyridin-5-yl}-3,6-dihydro-2H-pyridine-1-carboxylic acid dimethylamide] was tested, and the IC50 (phosphorylated c-MET) was 100 to 1000 nM and the IC50 (MKN45 cells) was 100 to 1000 nM.

C[C@H](c1c(Cl)ccc(F)c1Cl)c1c[nH]c2ncc(-c3cnn(C4CCNCC4)c3)cc12 [Example 80, 3-[(S)-1-(2,6-Dichloro-3-fluorophenyl)ethyl]-5-(1-piperidin-4-yl-1H-pyrazol-4-yl)-1H-pyrrolo[2,3-b]pyridine] showed an IC50 (phosphorylated c-MET) of at most 100 nM and an IC50 (MKN45 cells) of at most 100 nM.

In the case of CNC(=O)C(C)(C)n1cc(-c2cnc3[nH]cc(C(C)c4c(Cl)ccc(F)c4Cl)c3c2)cn1 (centres unmarked) [Example 62, 2-(4-{3-[1-(2,6-Dichloro-3-fluorophenyl)ethyl]-1H-pyrrolo[2,3-b]pyridin-5-yl}-pyrazol-1-yl)-N-methylisobutyramide], the IC50 (phosphorylated c-MET) is reported as at most 100 nM and the IC50 (MKN45 cells) is reported as 100 to 1000 nM.

Compound CC(c1c(Cl)ccc(F)c1Cl)c1c[nH]c2ncc(-c3cnn(C(C)(C)C(=O)O)c3)cc12 (centres unmarked) [Example 61, 2-(4-{3-[1-(2,6-Dichloro-3-fluorophenyl)ethyl]-1H-pyrrolo[2,3-b]pyridin-5-yl}-pyrazol-1-yl)-2-methylpropionic acid] has an IC50 (phosphorylated c-MET) of 1000 to 10000 nM and an IC50 (MKN45 cells) of 1000 to 10000 nM.

Work on CNC(=O)N1CCC(n2cc(-c3cnc4[nH]cc(C(C)c5c(Cl)ccc(F)c5Cl)c4c3)cn2)CC1 (centres unmarked) [Example 51, 4-(4-{3-[1-(2,6-Dichloro-3-fluorophenyl)ethyl]-1H-pyrrolo[2,3-b]pyridin-5-yl}-pyrazol-1-yl)-piperidine-1-carboxylic acid methylamide] yielded an IC50 (phosphorylated c-MET) of at most 100 nM and an IC50 (MKN45 cells) of at most 100 nM.

CNC(=O)Cn1cc(-c2cnc3[nH]cc([C@H](C)c4c(Cl)ccc(F)c4Cl)c3c2)cn1 [Example 76, 2-(4-{3-[(S)-1-(2,6-Dichloro-3-fluorophenyl)ethyl]-1H-pyrrolo[2,3-b]-pyridin-5-yl}-pyrazol-1-yl)-N-methylacetamide] gave an IC50 (phosphorylated c-MET) of at most 100 nM and an IC50 (MKN45 cells) of at most 100 nM.

CC(c1c(Cl)ccc(F)c1Cl)c1c[nH]c2ncc(C3=CCN(C(=O)C(C)(C)O)CC3)cc12 (centres unmarked) [Example 42, 1-(4-{3-[1-(2,6-Dichloro-3-fluorophenyl)ethyl]-1H-pyrrolo[2,3-b]pyridin-5-yl}-3,6-dihydro-2H-pyridin-1-yl)-2-hydroxy-2-methylpropan-1-one] gave an IC50 (phosphorylated c-MET) of 100 to 1000 nM and an IC50 (MKN45 cells) of 100 to 1000 nM.

With C[C@@H](c1c(Cl)ccc(F)c1Cl)c1c[nH]c2ncc(-c3cnn(C4CCNCC4)c3)cc12 [Example 81, 3-[(R)-1-(2,6-Dichloro-3-fluorophenyl)ethyl]-5-(1-piperidin-4-yl-1H-pyrazol-4-yl)-1H-pyrrolo[2,3-b]pyridine] the IC50 (phosphorylated c-MET) was 100 to 1000 nM and the IC50 (MKN45 cells) was 100 to 1000 nM.

CC(c1c(Cl)ccc(F)c1Cl)c1c[nH]c2ncc(C3=CCN(C(=O)CO)CC3)cc12 (centres unmarked) [Example 43, 1-(4-{3-[1-(2,6-Dichloro-3-fluorophenyl)ethyl]-1H-pyrrolo[2,3-b]pyridin-5-yl}-3,6-dihydro-2H-pyridin-1-yl)-2-hydroxyethanone] was tested, and the IC50 (phosphorylated c-MET) was at most 100 nM and the IC50 (MKN45 cells) was at most 100 nM.

CC(=O)N1CC(n2cc(-c3cnc4[nH]cc(C(C)c5c(Cl)ccc(F)c5Cl)c4c3)cn2)C1 (centres unmarked) [Example 58, 1-[3-(4-{3-[1-(2,6-Dichloro-3-fluorophenyl)-ethyl]-1H-pyrrolo[2,3-b]pyridin-5-yl}-pyrazol-1-yl)-azetidin-1-yl]-ethanone] gave an IC50 (phosphorylated c-MET) of at most 100 nM and an IC50 (MKN45 cells) of 100 to 1000 nM.

CC(c1c(Cl)ccc(F)c1Cl)c1c[nH]c2ncc(-c3ccc(C(=O)N4CCCC4)cc3)cc12 (centres unmarked) [Example 4, (4-{3-[1-(2,6-Dichloro-3-fluorophenyl)ethyl]-1H-pyrrolo[2,3-b]pyridin-5-yl}phenyl)pyrrolidin-1-ylmethanone] showed an IC50 (phosphorylated c-MET) of 100 to 1000 nM and an IC50 (MKN45 cells) of 100 to 1000 nM.

Work on CC(c1c(Cl)ccc(F)c1Cl)c1c[nH]c2ncc(-c3cnn(C4CCN(C(N)=O)CC4)c3)cc12 (centres unmarked) [Example 49, 4-(4-{3-[1-(2,6-Dichloro-3-fluorophenyl)ethyl]-1H-pyrrolo[2,3-b]pyridin-5-yl}-pyrazol-1-yl)-piperidine-1-carboxamide] yielded an IC50 (phosphorylated c-MET) of 100 to 1000 nM and an IC50 (MKN45 cells) of at most 100 nM.
